Source: patent US12234248B2, “Co-crystal compounds comprising lithium ions and isonicotinamide” (UNIVERSITY OF LIMERICK, priority 2017, dated 2025)
Values joined by “and” are separate entries in the source; they are usually repeats but may differ in a detail not shown here. Identical values can stand only once. One block for each compound: values may come before it.

Assays:
[1] = Stability of crystalline material under warm humid conditions (40° C., 75% relative humidity), PXRD before and after; format: physicochemical; settings: stored at 40° C., 75% relative humidity; stable = retained crystal form for at least two weeks by PXRD
Description: The stability of these compounds under warm humid conditions was assessed as follows:
The crystalline material was stored at 40° C. in an atmosphere of 75% relative humidity.
Compounds were classed as stable if they retained their crystal form for at least two weeks as verified by examination of PXRD patterns collected before and after exposure to humidity.
It can be seen that the pattern obtained after 2 months at 75% relative humidity and 40° C. (upper trace) in this case is different.

[2] = Bioavailability in vivo in rats: lithium in plasma and brain by ICP-OES after oral administration
Description: Male Sprague-Dawley rats, weighing 240-290 g, were treated through gastric intubation with formulations of lithium and compared with lithium carbonate as a reference. For each formulation a group of 12 rats was treated. 4 mEq/kg of lithium were orally administered, after suspension in 2 mL of corn seeds oil (“Olio Cuore”).
Four intervals' post-administration time (2, 24, 48 and 72 hours) were considered and three rats for each of them, employing the protocol used by Zaworotko and coworkers (Smith et al., Mol. Pharmaceutics 2013, 10, 4728-4738). At each time interval blood samples were collected through intra-cardiac […], these were treated with 50 μL of sodium heparin and centrifuged for 10 min at 1600 rpm. Plasma samples of approximately […] each were thus obtained. The brain was explanted in toto with perfusion with phosphate buffered saline (PBS) in order to preserve it in a viable state. The plasma and brain samples were immediately frozen at a temperature of −80° C., after measuring the weight of the brains.
In order to determine the concentration of the lithium by means of the ICP-OES (Inductively Coupled Plasma Optical Emission Spectometry) analysis, plasma and brain samples were purified and mineralized, respectively to obtain solutions suitable for analysis.
A 0.5 mL aliquot was taken from each sample, to which were added equal amounts of MilliQ water and concentrated nitric acid, in order to bring the lithium ion in solution in the form of LiNO3 and to obtain the precipitation of the proteins. At this point, each sample was sonicated for 10 min in an ultrasonic bath and diluted to a volume of 5.0 mL.
All samples were subjected to centrifugation for a period of 40 min, at a rotational speed of 6000 rpm, to obtain complete plasma proteins/solution separation. At the end supernatant liquid containing lithium was diluted to a final volume of 15 mL by adding MilliQ water. The obtained solutions were stored at a temperature of 4° C. until analysis.
The purpose of this phase was to obtain liquid samples, suitable to ICP-OES analysis, containing lithium in solution, starting from the solid organic tissue of the brain. The mineralization process allows the complete degradation of organic substances until the total transformation into simple inorganic substances.
The first operation performed was that the drying of the fabric, obtained through the use of a digester open PerkinElmer SPB 100-12: each sample of brain has been inserted in special containers Digitube™ 100 mL and maintained at a temperature of 80° C. for 120 min.
The second step involved the mineralization true and proper brain: each sample were added to 10 mL of concentrated nitric acid and 1.0 mL of hydrogen peroxide, then the system was brought to a temperature of 120° C. for 120 min. until the complete mineralization. With this procedure you get the desired biological degradation of organic compounds and the consequent passage of lithium in solution. The solutions thus obtained were collected, brought to a final volume of 20 mL with MilliQ water and preserved at a temperature of 4° C. until time of analysis.
In order to obtain the determination of lithium ion concentrations in the samples previously prepared, optical emission spectrometry inductively coupled plasma ICP-OES was used (PerkinElmer Optima 8000 spectrometer).
The analysis was conducted at the fixed wavelength of lithium (λ=670.784 nm) and the intensity of the radiation emitted by each sample was measured and compared standard solutions.
Plasma and brain concentration data were processed using a non-compartmental approach using WinNonlin® software (Pharsight Corporation, USA) and Microsoft Excel XP (Microsoft Corporation, […]).

[3] = rat brain, 4 mEq/kg lithium oral, non-compartmental
[4] = rat plasma, 4 mEq/kg lithium oral, non-compartmental

Compound: CC1(C)C2CCC1(CS(=O)(=O)[O-])C(=O)C2.CC1(C)C2CCC1(CS(=O)(=O)[O-])C(=O)C2.NC(N)=O.NC(N)=O.O.O.[Li+].[Li+] (centres unmarked) [Compound 28, [Li2(camphorsulphonate)2(urea)2 (water)2]]
Stable? [1]: No

Compound: CC1(C)C2CCC1(CS(=O)(=O)[O-])C(=O)C2.CNCC(=O)O.O.O.[Li+] (centres unmarked) [Compound 30, [Li(camphorsulfonate)(sarcosine)(water)2]]
Stable? [1]: No

Compound: NC(=O)c1ccncc1.NC(=O)c1ccncc1.NC(=O)c1ccncc1.NC(=O)c1ccncc1.NC(=O)c1ccncc1.NC(=O)c1ccncc1.NC(=O)c1ccncc1.NC(=O)c1ccncc1.O=C([O-])c1ccccc1O.O=C([O-])c1ccccc1O.O=C([O-])c1ccccc1O.O=C([O-])c1ccccc1O.[Li+].[Li+].[Li+].[Li+] [Compound 32, [Li2(salicylate)2(isonicotinamide)4]2]
Stable? [1]: No

Compound: O=C([O-])[O-].[Li+].[Li+] [Lithium carbonate, lithium carbonate, reference compound]
Cmax (brain) [2, 3]: 5.9900 µg/g
Tmax (brain) [2, 3]: 24 h
t½_Lambda_z (brain) ([2]; rat brain, 4 mEq/kg lithium oral, terminal phase): 13.7913 h
AUClast (brain) ([2]; rat brain, 4 mEq/kg lithium oral, time 0 to last quantifiable point): 232.4100 mg·h/g
Relative Brain BA (UL crystal forms, oral vs Li2CO3, oral) ([2]; rat brain, relative to lithium carbonate): 100.00%
Cmax (plasma) [2, 4]: 8413.3 ng/mL
Tmax (plasma) [2, 4]: 24 h
t½_Lambda_z (plasma) ([2]; rat plasma, 4 mEq/kg lithium oral, terminal phase): 7.3913 h
Relative Plasma BA (UL crystal forms, oral vs Li2CO3 oral) ([2]; rat plasma, relative to lithium carbonate): 100.00%
BRAIN CONC., Time(h) 2.00 ([2]; rat, 4 mEq/kg lithium oral, 2 h, lithium in brain, individual rats (three per time)): 0.60 µg/g and 1.43 µg/g and 0.68 µg/g
PLASMA CONC, Time(h) 2.00 ([2]; rat, 4 mEq/kg lithium oral, 2 h, lithium in plasma, individual rats (three per time)): 3020 ng/mL and 4820 ng/mL and 2720 ng/mL
BRAIN CONC., Time(h) 24.00 ([2]; rat, 4 mEq/kg lithium oral, 24 h, lithium in brain, individual rats (three per time)): 7.89 µg/g and 4.55 µg/g and 5.53 µg/g
PLASMA CONC, Time(h) 24.00 ([2]; rat, 4 mEq/kg lithium oral, 24 h, lithium in plasma, individual rats (three per time)): 8720 ng/mL and 5320 ng/mL and 11200 ng/mL
BRAIN CONC., Time(h) 48.00 ([2]; rat, 4 mEq/kg lithium oral, 48 h, lithium in brain, individual rats (three per time)): 3.35 µg/g and 2.89 µg/g and 3.43 µg/g
PLASMA CONC, Time(h) 48.00 ([2]; rat, 4 mEq/kg lithium oral, 48 h, lithium in plasma, individual rats (three per time)): 1290 ng/mL and 1180 ng/mL and 1600 ng/mL
BRAIN CONC., Time(h) 72.00 ([2]; rat, 4 mEq/kg lithium oral, 72 h, lithium in brain, individual rats (three per time)): 0.54 µg/g and 0.52 µg/g and 0.55 µg/g
PLASMA CONC, Time(h) 72.00 ([2]; rat, 4 mEq/kg lithium oral, 72 h, lithium in plasma, individual rats (three per time)): 140 ng/mL and 60 ng/mL and 80 ng/mL

Compound: Li(adeninate)(water)3 [Compound 8]
Stable? [1]: No

Compound: [(imidazolium)2^+(Li(hydrogen malate)2(water))^−] [Compound 33]
Stable? [1]: No

Second part, the compound after the results:

Stable? [1]: Yes
Compound: [Li2 (fumarate)]n [Compound 15]

Stable? [1]: Yes
Compound: [Li2 (oxalate)]n [Compound 17]

Stable? [1]: No
Compound: [Li(camphorsulfonate)(water)2] [Compound 29]

Stable? [1]: No
Compound: [Li(hydrogen maleate)(sarcosine)(water)] [Compound 27]

Stable? [1]: No
Compound: [Li(pyridoxinate)(water)]n [Compound 10]

Stable? [1]: No
Compound: {[Li(malate) (water)2]•(imidazolium)}n [Compound 26]

Stable? [1]: No
Compound: {[Li(p-toluenesulfonate)]•H30}n [Compound 31]
